Source: patent US20090176839A1, “FORMULATIONS OF 3-(6-(1-(2,2-DIFLUOROBENZO[D][1,3]DIOXOL-5-YL) CYCLOPROPANECARBOXAMIDO)-3-METHYLPYRIDIN-2-YL)BENZOIC ACID” (priority 2007, published 2009)
“Also recorded” adds a separate entry of the source. Read-outs that look alike come from different tables or passages of the source.

Experiments:
male mice = assay: In vivo mouse micronucleus assay; conditions: oral gavage at doses up to 2000 mg/kg
Procedure: (§1) The potential for genetic toxicology was tested using standard GLP bacterial mutation (Ames), Chinese hamster ovary (CHO) chromosome aberration, and in vivo mouse micronucleus assays: Compound 1 was negative in all tests. […] With the exception of the preliminary 7-day toxicity studies, all studies were performed according to GLP regulations.

[1] = Tissue distribution in male rats after single oral dose of 75 mg/kg; type: in vivo, male Sprague Dawley rats; conditions: 75 mg/kg oral; for Kp at 1 h / Kp at 4 hr / Kp at 12 hr / Kp / Kp at 48 hr: po, 75 mg/kg
Procedure: Following a single oral administration of unlabelled Compound 1 to rats, the highest distribution was to the liver followed by lung, pancreas and brain with tissue-to-plasma ratios of 0.73, 0.19, 0.13 and 0.02, respectively, at one hour following oral administration of 75 mg/kg. Elimination of Compound 1 was nearly complete from all tissues 48 hours after administration (concentrations less than 1 μg/mL). Although the distribution to the lung is low relative to plasma, the concentrations measured in lung at low and moderate doses are predicted to be efficacious.

dogs = assay: in vivo; conditions: dog
Procedure: (§2) One dog per gender was dosed orally with the vehicle (0.5% methylcellulose+0.5% Tween80 in water), or 25, 50, or 100 mg/kg/day Compound 1 for 7 consecutive days. The dose volume was 5 mL/kg/day for all dose groups. Plasma samples were collected on Days 1 and 7 for TK analysis and viability, clinical observations, body weights, feed consumption, clinical pathology (termination), organ weights, macroscopic observations, and microscopic pathology were evaluated.

in vivo [2] = assay: in vivo; parameters: species or system dogs; conditions: both sexes, dog
Procedure: as §2

[3] = tested on: gastrointestinal, respiratory, CNS, or cardiovascular systems; assay: Safety pharmacology studies (ICH S7A/S7B battery); type: in vivo, rat, dog
[4] = Toxicokinetics in acute oral toxicity study in mice; type: in vivo; conditions: plasma
Source text: Compound 1 was well absorbed in mice with time to reach maximum plasma concentrations (tmax) ranging from 0.5 to 2.0 hr. […] There were no significant gender-related effects in Compound 1 exposures noted.

hERG = hERG (Homo sapiens, UniProt Q12809); assay: hERG electrophysiological techniques; type: cell-based; conditions: variety of electrophysiological techniques
Sequence of hERG (Q12809 whole entry): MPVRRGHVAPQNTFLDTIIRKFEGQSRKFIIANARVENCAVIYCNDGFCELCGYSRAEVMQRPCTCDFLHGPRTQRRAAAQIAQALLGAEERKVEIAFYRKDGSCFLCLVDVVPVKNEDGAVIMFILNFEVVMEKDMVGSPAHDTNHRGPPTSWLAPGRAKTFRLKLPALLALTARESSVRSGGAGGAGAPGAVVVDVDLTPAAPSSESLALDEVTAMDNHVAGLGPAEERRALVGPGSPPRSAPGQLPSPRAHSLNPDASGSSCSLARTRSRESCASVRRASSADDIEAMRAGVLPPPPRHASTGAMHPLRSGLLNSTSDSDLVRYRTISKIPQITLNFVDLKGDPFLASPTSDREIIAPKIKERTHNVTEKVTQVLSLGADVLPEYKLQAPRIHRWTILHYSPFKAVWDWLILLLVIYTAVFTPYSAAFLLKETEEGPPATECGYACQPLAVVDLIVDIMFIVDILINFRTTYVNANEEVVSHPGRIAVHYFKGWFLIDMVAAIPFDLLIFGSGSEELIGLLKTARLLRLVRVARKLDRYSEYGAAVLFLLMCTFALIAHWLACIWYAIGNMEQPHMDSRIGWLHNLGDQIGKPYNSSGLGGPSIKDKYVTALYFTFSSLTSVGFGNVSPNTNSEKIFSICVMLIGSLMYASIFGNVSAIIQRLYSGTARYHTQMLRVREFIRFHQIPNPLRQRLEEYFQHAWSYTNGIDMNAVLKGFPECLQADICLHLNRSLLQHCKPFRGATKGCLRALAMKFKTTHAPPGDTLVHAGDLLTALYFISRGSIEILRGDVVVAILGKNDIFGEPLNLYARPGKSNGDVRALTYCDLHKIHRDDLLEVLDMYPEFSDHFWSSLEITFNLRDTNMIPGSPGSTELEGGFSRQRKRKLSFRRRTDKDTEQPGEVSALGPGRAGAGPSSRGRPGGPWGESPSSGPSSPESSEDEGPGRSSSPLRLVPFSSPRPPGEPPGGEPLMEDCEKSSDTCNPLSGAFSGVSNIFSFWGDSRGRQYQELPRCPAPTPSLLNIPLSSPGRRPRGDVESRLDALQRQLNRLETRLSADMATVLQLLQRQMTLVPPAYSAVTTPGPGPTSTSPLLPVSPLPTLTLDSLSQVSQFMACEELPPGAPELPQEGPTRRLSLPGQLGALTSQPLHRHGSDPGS

in vivo [5] = conditions: male, beagle, dog, 200 mg/kg
rats = assay: Acute oral toxicity study in rats; conditions: rats; single oral doses 500, 1000 or 2000 mg/kg
Procedure: (§3) The intended clinical route of administration is oral, thus oral toxicity studies were done in mice, rats and dogs. […] Effects of repeat oral dosing were assessed in rats and dogs in preliminary 7-day toxicity studies followed by a 14-day GLP1 toxicity studies.

[6] = Acute oral toxicity study in rats; conditions: rat, in vivo, po
Procedure: as §3

[7] = tested on: Chinese hamster ovary (CHO) cell; assay: Chinese hamster ovary (CHO) chromosome aberration assay; type: cell-based; conditions: GLP
Procedure: as §1

[8] = Sprague Dawley, rat, male rats, Brain
[9] = Sprague Dawley, rat, male rats, Liver
[10] = Sprague Dawley, rat, male rats, Lung
[11] = Sprague Dawley, rat, male rats, Pancreas
[12] = Sprague Dawley, rat, male rats, Plasma

Cc1ccc(NC(=O)C2(c3ccc4c(c3)OC(F)(F)O4)CC2)nc1-c1cccc(C(=O)O)c1 [Compound 1, 3-(6-(1-(2,2-difluorobenzo[d][1,3]dioxol-5-yl)cyclopropanecarboxamido)-3-methylpyridin-2-yl)benzoic acid]
number of micronucleated polychromatic erythrocytes (male mice): negative; also recorded: did not induce a significant increase
Cmax [1, 8]: 957 ng/mL
Tmax [1, 8]: 4 h
AUC ([1]; Sprague Dawley, rat, male rats, Brain, footnote a: AUCall): 9.3 µg·h/mL
concentration at 12 hr ([1]; Sprague Dawley, rat, male rats, Brain, read-out: Clast): 546 ng/mL
AUC(0-inf) [1, 9]: 885 µg·h/mL
Cmax [1, 9]: 38100 ng/mL
Tmax [1, 9]: 4 h
half-life [1, 9]: 8.06 h
concentration at 48 hr ([1]; Sprague Dawley, rat, male rats, Liver, read-out: Clast): 965 ng/mL
AUC(0-inf) [1, 10]: 187 µg·h/mL
Cmax [1, 10]: 9140 ng/mL
Tmax [1, 10]: 1 h
half-life [1, 10]: 7.79 h
concentration at 48 hr ([1]; Sprague Dawley, rat, male rats, Lung, read-out: Clast): 189 ng/mL
AUC(0-inf) [1, 11]: 132 µg·h/mL
Cmax [1, 11]: 6830 ng/mL
Tmax [1, 11]: 4 h
half-life [1, 11]: 6.87 h
concentration at 48 hr ([1]; Sprague Dawley, rat, male rats, Pancreas, read-out: Clast): 86 ng/mL
AUC(0-inf) [1, 12]: 980 µg·h/mL
Cmax [1, 12]: 59100 ng/mL
Tmax [1, 12]: 4 h
half-life [1, 12]: 6.15 h
concentration at 48 hr ([1]; Sprague Dawley, rat, male rats, Plasma, read-out: Clast): 542 ng/mL
Tissue Concentrations, Brain ([1]; male rats, 1 hr): 0.93 μg/mL or μg/g
Tissue Concentrations, Liver ([1]; male rats, 1 hr): 34.7 μg/mL or μg/g
Tissue Concentrations, Lung ([1]; male rats, 1 hr): 9.14 μg/mL or μg/g
Tissue Concentrations, Pancreas ([1]; male rats, 1 hr): 6.03 μg/mL or μg/g
Tissue Concentrations, Plasma ([1]; male rats, 1 hr): 47.3 μg/mL or μg/g
Tissue Concentrations, Brain ([1]; male rats, 4 hr): 0.96 μg/mL or μg/g
Tissue Concentrations, Liver ([1]; male rats, 4 hr): 38.1 μg/mL or μg/g
Tissue Concentrations, Lung ([1]; male rats, 4 hr): 8.99 μg/mL or μg/g
Tissue Concentrations, Pancreas ([1]; male rats, 4 hr): 6.83 μg/mL or μg/g
Tissue Concentrations, Plasma ([1]; male rats, 4 hr): 59.1 μg/mL or μg/g
Tissue Concentrations, Brain ([1]; male rats, 12 hr): 0.55 μg/mL or μg/g
Tissue Concentrations, Liver ([1]; male rats, 12 hr): 26.3 μg/mL or μg/g
Tissue Concentrations, Lung ([1]; male rats, 12 hr): 5.17 μg/mL or μg/g
Tissue Concentrations, Pancreas ([1]; male rats, 12 hr): 3.65 μg/mL or μg/g
Tissue Concentrations, Plasma ([1]; male rats, 12 hr): 24.8 μg/mL or μg/g
Tissue Concentrations, Brain ([1]; male rats, 48 hr): BLQ
Tissue Concentrations, Liver ([1]; male rats, 48 hr): 0.97 μg/mL or μg/g
Tissue Concentrations, Lung ([1]; male rats, 48 hr): 0.19 μg/mL or μg/g
Tissue Concentrations, Pancreas ([1]; male rats, 48 hr): 0.09 μg/mL or μg/g
Tissue Concentrations, Plasma ([1]; male rats, 48 hr): 0.54 μg/mL or μg/g
tlast ([1]; male rats, Brain): 12 h
tlast ([1]; male rats, Liver): 48 h
tlast ([1]; male rats, Lung): 48 h
tlast ([1]; male rats, Pancreas): 48 h
tlast ([1]; male rats, Plasma): 48 h
concentration at 48 h ([1]; male, Sprague Dawley, rat, all tissues (liver, lung, pancreas, brain), rats, 48 hours after administration, read-out: concentrations in all tissues): < 1000 ng/mL
Kp at 1 h ([1]; male, Sprague Dawley, rat, brain, male rats, 1 hr, read-out: Tissue/Plasma Ratio, Brain): 0.02
Kp at 4 hr ([1]; male, Sprague Dawley, rat, brain, male rats, 4 hr, read-out: Tissue/Plasma Ratio, Brain): 0.02
Kp at 12 hr ([1]; male, Sprague Dawley, rat, brain, male rats, 12 hr, read-out: Tissue/Plasma Ratio, Brain): 0.02
Kp ([1]; male, Sprague Dawley, rat, brain, male rats, Brain, read-out: Cmax Ratio (Tissue/Plasma)): 0.02
Kp ([1]; male, Sprague Dawley, rat, brain, rats, 1 to 48 hours after administration, read-out: tissue-to-plasma concentration ratios, brain): 0.02
Kp at 1 h ([1]; male, Sprague Dawley, rat, liver, male rats, 1 hr, read-out: Tissue/Plasma Ratio, Liver): 0.73
Kp at 4 hr ([1]; male, Sprague Dawley, rat, liver, male rats, 4 hr, read-out: Tissue/Plasma Ratio, Liver): 0.64
Kp at 12 hr ([1]; male, Sprague Dawley, rat, liver, male rats, 12 hr, read-out: Tissue/Plasma Ratio, Liver): 1.06
Kp at 48 hr ([1]; male, Sprague Dawley, rat, liver, male rats, 48 hr, read-out: Tissue/Plasma Ratio, Liver): 1.78
Kp ([1]; male, Sprague Dawley, rat, liver, male rats, Liver, read-out: Cmax Ratio (Tissue/Plasma)): 0.64
Kp ([1]; male, Sprague Dawley, rat, liver, rats, 1 to 48 hours after administration, read-out: tissue-to-plasma concentration ratios, liver): 0.7 to 1.8
Kp at 1 h ([1]; male, Sprague Dawley, rat, lung, male rats, 1 hr, read-out: Tissue/Plasma Ratio, Lung): 0.19
Kp at 4 hr ([1]; male, Sprague Dawley, rat, lung, male rats, 4 hr, read-out: Tissue/Plasma Ratio, Lung): 0.15
Kp at 12 hr ([1]; male, Sprague Dawley, rat, lung, male rats, 12 hr, read-out: Tissue/Plasma Ratio, Lung): 0.21
Kp at 48 hr ([1]; male, Sprague Dawley, rat, lung, male rats, 48 hr, read-out: Tissue/Plasma Ratio, Lung): 0.35
Kp ([1]; male, Sprague Dawley, rat, lung, male rats, Lung, read-out: Cmax Ratio (Tissue/Plasma)): 0.15
Kp ([1]; male, Sprague Dawley, rat, lung, rats, 1 to 48 hours after administration, read-out: tissue-to-plasma concentration ratios, lung): 0.15 to 0.35
Kp at 1 h ([1]; male, Sprague Dawley, rat, pancreas, male rats, 1 hr, read-out: Tissue/Plasma Ratio, Pancreas): 0.13
Kp at 4 hr ([1]; male, Sprague Dawley, rat, pancreas, male rats, 4 hr, read-out: Tissue/Plasma Ratio, Pancreas): 0.12
Kp at 12 hr ([1]; male, Sprague Dawley, rat, pancreas, male rats, 12 hr, read-out: Tissue/Plasma Ratio, Pancreas): 0.15
Kp at 48 hr ([1]; male, Sprague Dawley, rat, pancreas, male rats, 48 hr, read-out: Tissue/Plasma Ratio, Pancreas): 0.15
Kp ([1]; male, Sprague Dawley, rat, pancreas, male rats, Pancreas, read-out: Cmax Ratio (Tissue/Plasma)): 0.12
Kp ([1]; male, Sprague Dawley, rat, pancreas, rats, 1 to 48 hours after administration, read-out: tissue-to-plasma concentration ratios, pancreas): 0.12 to 0.15
food consumption, hematologies, coagulations parameters, ECG measurements (dogs): no effects
gross lesions and histopathological findings (dogs): no test article related gross lesions or histopathological findings
body weight loss (dogs; 100 mg/kg/day): 0.3 kg
NOAEL at 7 days (in vivo [2]): 100 mg/kg/day
cardiovascular or respiratory findings ([3]; oral doses up to 1000 mg/kg in the rat and 200 mg/kg in the dog): no cardiovascular or respiratory findings
adverse effects on gastrointestinal, respiratory, CNS, or cardiovascular systems ([3]; oral formulations): unlikely to cause adverse effects
Cmax ([4]; CD-1, mouse, 2000 mg/kg, Female): 325000 ng/mL
AUC(0-t) ([4]; CD-1, mouse, 2000 mg/kg, Female, read-out: AUC0-24 h): 2900 µg·h/mL
Tmax ([4]; CD-1, mouse, 2000 mg/kg, Female, read-out: tmax): 1 h
Cmax ([4]; CD-1, mouse, 2000 mg/kg, Male): 264000 ng/mL
AUC(0-t) ([4]; CD-1, mouse, 2000 mg/kg, Male, read-out: AUC0-24 h): 2680 µg·h/mL
Tmax ([4]; CD-1, mouse, 2000 mg/kg, Male, read-out: tmax): 1 h
half-life ([4]; both sexes, mouse, 500 to 2000 mg/kg, read-out: elimination half-life (t1/2)): 4.1 to 8.6 h
Tmax ([4]; both sexes, mouse, 500 to 2000 mg/kg, read-out: time to reach maximum plasma concentrations (tmax)): 0.5 to 2 h
AUC(0-t) ([4]; female, mouse, females at 500 mg/kg, read-out: AUC0-24hr): 1840 µg·h/mL
Cmax ([4]; female, mouse, females at 2000 mg/kg): 325000 ng/mL
Cmax ([4]; male, mouse, males at 500 mg/kg): 142000 ng/mL
IC50 (hERG): ≥ 30 µM
AUC(0-inf) (in vivo [5]): 288 µg·h/mL
Cmax (in vivo [5]): 52000 ng/mL
concentration at 48 hr (in vivo [5]): 63 ng/mL
Tmax (in vivo [5]; po): 1.7 h
half-life (in vivo [5]; po): 6.1 h
organ weights and gross observations at necropsy (rats): no effects on organ weights and no gross observations
MTD at 14 days [6]: > 2000 mg/kg
NOAEL at 14 days [6]: > 2000 mg/kg
clastogenicity (chromosome aberrations) [7]: negative
